Measured values reported in PubChem BioAssay (NCI).
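Assay format: 96-well plates, 48-hour exposure. The concentration for 50% growth inhibition is given as GI50. At the TGI there is no net growth.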

Legend:
Test in all cases: NCI tumour cell line growth inhibition, 48 h
A498 renal = test system: A498 renal
UO-31 renal = test system: UO-31 renal
NCI-H23 lung = test system: NCI-H23 lung
UACC-62 melanoma = test system: UACC-62 melanoma
SF-539 CNS = test system: SF-539 CNS
SW-620 colon = test system: SW-620 colon
HCC-2998 colon = test system: HCC-2998 colon
MDA-MB-435 = test system: MDA-MB-435
OVCAR-5 ovarian = test system: OVCAR-5 ovarian
OVCAR-3 ovarian = test system: OVCAR-3 ovarian
HCT-15 colon = test system: HCT-15 colon
NCI/ADR-RES ovarian = test system: NCI/ADR-RES ovarian
OVCAR-8 ovarian = test system: OVCAR-8 ovarian
MOLT-4 leukemia = test system: MOLT-4 leukemia
HS 578T breast = test system: HS 578T breast
MALME-3M melanoma = test system: MALME-3M melanoma
SF-295 CNS = test system: SF-295 CNS
HOP-62 NSCLC = test system: HOP-62 NSCLC
CAKI-1 renal = test system: CAKI-1 renal
TK-10 renal = test system: TK-10 renal
SK-MEL-28 melanoma = test system: SK-MEL-28 melanoma
PC-3 prostate = test system: PC-3 prostate
COLO 205 colon = test system: COLO 205 colon
SF-268 CNS = test system: SF-268 CNS
HT29 colon = test system: HT29 colon
786-0 renal = test system: 786-0 renal
T-47D breast = test system: T-47D breast
A549 NSCLC = test system: A549 NSCLC
OVCAR-4 ovarian = test system: OVCAR-4 ovarian
LOX IMVI melanoma = test system: LOX IMVI melanoma
SK-OV-3 ovarian = test system: SK-OV-3 ovarian
HL-60(TB) leukemia = test system: HL-60(TB) leukemia
SR leukemia = test system: SR leukemia
NCI-H460 lung = test system: NCI-H460 lung
MCF7 breast = test system: MCF7 breast
SK-MEL-2 melanoma = test system: SK-MEL-2 melanoma
U251 CNS = test system: U251 CNS
BT-549 breast = test system: BT-549 breast
EKVX NSCLC = test system: EKVX NSCLC
ACHN renal = test system: ACHN renal
HCT-116 colon = test system: HCT-116 colon
HOP-92 NSCLC = test system: HOP-92 NSCLC
NCI-H522 lung = test system: NCI-H522 lung
K-562 leukemia = test system: K-562 leukemia
NCI-H226 lung = test system: NCI-H226 lung
CCRF-CEM leukemia = test system: CCRF-CEM leukemia
M14 melanoma = test system: M14 melanoma
SN12C renal = test system: SN12C renal
KM12 colon = test system: KM12 colon
IGROV1 ovarian = test system: IGROV1 ovarian
SK-MEL-5 melanoma = test system: SK-MEL-5 melanoma
DU-145 prostate = test system: DU-145 prostate
UACC-257 melanoma = test system: UACC-257 melanoma
SNB-19 CNS = test system: SNB-19 CNS
RXF 393 renal = test system: RXF 393 renal
SNB-75 CNS = test system: SNB-75 CNS
RPMI-8226 leukemia = test system: RPMI-8226 leukemia

Cc1c(-c2ccc(N3CCc4cccc(C(=O)Nc5nc6ccccc6s5)c4C3)nc2C(=O)O)cnn1CC12CC3CC(CC(C3)C1)C2
GI50 (A498 renal): < 0.01 µM | TGI (A498 renal): < 0.0127 µM | GI50 (UO-31 renal): 2.6 µM | TGI (UO-31 renal): 9.36 µM | GI50 (NCI-H23 lung): 13.4 µM | TGI (NCI-H23 lung): 35.4 µM | GI50 (UACC-62 melanoma): 3.65 µM | TGI (UACC-62 melanoma): 15.4 µM | GI50 (SF-539 CNS): 6.51 µM | TGI (SF-539 CNS): 21.8 µM | GI50 (SW-620 colon): 8.54 µM | TGI (SW-620 colon): 37.1 µM | GI50 (HCC-2998 colon): < 0.0329 µM | TGI (HCC-2998 colon): 1.34 µM | GI50 (MDA-MB-435): 6.77 µM | TGI (MDA-MB-435): 28.3 µM | GI50 (OVCAR-5 ovarian): 11.4 µM | TGI (OVCAR-5 ovarian): 32.4 µM | GI50 (OVCAR-3 ovarian): 6.19 µM | TGI (OVCAR-3 ovarian): 20.9 µM | GI50 (HCT-15 colon): 6.08 µM | TGI (HCT-15 colon): 19.9 µM | GI50 (NCI/ADR-RES ovarian): 14.7 µM | TGI (NCI/ADR-RES ovarian): 38 µM | GI50 (OVCAR-8 ovarian): 7.49 µM | TGI (OVCAR-8 ovarian): 33 µM | GI50 (MOLT-4 leukemia): < 0.01 µM | GI50 (HS 578T breast): 3.77 µM | TGI (HS 578T breast): 38.4 µM | GI50 (MALME-3M melanoma): 14.3 µM | TGI (MALME-3M melanoma): 33.7 µM | GI50 (SF-295 CNS): 3.53 µM | TGI (SF-295 CNS): 11.6 µM | GI50 (HOP-62 NSCLC): 10.1 µM | TGI (HOP-62 NSCLC): 27.8 µM | GI50 (CAKI-1 renal): 8.35 µM | TGI (CAKI-1 renal): 23.4 µM | GI50 (TK-10 renal): 2.99 µM | TGI (TK-10 renal): 13.5 µM | GI50 (SK-MEL-28 melanoma): 6.27 µM | TGI (SK-MEL-28 melanoma): 19.3 µM | GI50 (PC-3 prostate): 1.42 µM | TGI (PC-3 prostate): 6.15 µM | GI50 (COLO 205 colon): 0.63 µM | TGI (COLO 205 colon): 10.9 µM | GI50 (SF-268 CNS): 8.05 µM | TGI (SF-268 CNS): 24.8 µM | GI50 (HT29 colon): 7.79 µM | TGI (HT29 colon): 25.3 µM | GI50 (786-0 renal): 3.65 µM | TGI (786-0 renal): 12.4 µM | GI50 (T-47D breast): 6.59 µM | TGI (T-47D breast): 30.7 µM | GI50 (A549 NSCLC): 4.97 µM | TGI (A549 NSCLC): 25.3 µM | GI50 (OVCAR-4 ovarian): 6.72 µM | TGI (OVCAR-4 ovarian): 33.2 µM | GI50 (LOX IMVI melanoma): 5.92 µM | TGI (LOX IMVI melanoma): 23.4 µM | GI50 (SK-OV-3 ovarian): 6.99 µM | TGI (SK-OV-3 ovarian): 21.3 µM | GI50 (HL-60(TB) leukemia): 3.43 µM | TGI (HL-60(TB) leukemia): 18.7 µM | GI50 (SR leukemia): 12.8 µM | TGI (SR leukemia): > 57.4 µM | GI50 (NCI-H460 lung): 8.22 µM | TGI (NCI-H460 lung): 24.6 µM | GI50 (MCF7 breast): 10.8 µM | TGI (MCF7 breast): 29.4 µM | GI50 (SK-MEL-2 melanoma): 3.1 µM | TGI (SK-MEL-2 melanoma): 20.5 µM | GI50 (U251 CNS): 7.04 µM | TGI (U251 CNS): 30.2 µM | GI50 (BT-549 breast): 3.73 µM | TGI (BT-549 breast): 16.4 µM | GI50 (EKVX NSCLC): 8.62 µM | TGI (EKVX NSCLC): 28.3 µM | GI50 (ACHN renal): 4.83 µM | TGI (ACHN renal): 18.5 µM | GI50 (HCT-116 colon): 3.23 µM | TGI (HCT-116 colon): 14.9 µM | GI50 (HOP-92 NSCLC): < 0.01 µM | TGI (HOP-92 NSCLC): < 0.01 µM | GI50 (NCI-H522 lung): 10.8 µM | TGI (NCI-H522 lung): 28 µM | GI50 (K-562 leukemia): 7.51 µM | TGI (K-562 leukemia): > 100 µM | GI50 (NCI-H226 lung): 13.7 µM | TGI (NCI-H226 lung): 50.6 µM | GI50 (CCRF-CEM leukemia): < 0.01 µM | TGI (CCRF-CEM leukemia): 10.4 µM | GI50 (M14 melanoma): 7.7 µM | TGI (M14 melanoma): 25.4 µM | GI50 (SN12C renal): 6.93 µM | TGI (SN12C renal): 29.8 µM | GI50 (KM12 colon): 4.97 µM | TGI (KM12 colon): 20.6 µM | GI50 (IGROV1 ovarian): 12.6 µM | TGI (IGROV1 ovarian): 31.5 µM | GI50 (SK-MEL-5 melanoma): 2.79 µM | TGI (SK-MEL-5 melanoma): 9.79 µM | GI50 (DU-145 prostate): 15.2 µM | TGI (DU-145 prostate): 29.1 µM | GI50 (UACC-257 melanoma): 10.5 µM | TGI (UACC-257 melanoma): 30.2 µM | GI50 (SNB-19 CNS): 4.37 µM | TGI (SNB-19 CNS): 19.6 µM | GI50 (RXF 393 renal): 0.0853 µM | TGI (RXF 393 renal): 4.61 µM | GI50 (SNB-75 CNS): 9.35 µM | TGI (SNB-75 CNS): 36.8 µM | GI50 (RPMI-8226 leukemia): < 0.0177 µM | TGI (RPMI-8226 leukemia): 2.86 µM
